Data reported in patent publication US8809310B2, “Use of rasagiline for the treatment of multiple system atrophy” (priority 2006, dated 2014).
Read-outs that look alike come from different tables or passages of the source.

What was measured:
[1] = system: (PLP) α-synuclein transgenic mice
Experimental: The stride length of the hindlimbs of the mice was measured at baseline and before sacrificing them after a habituation to the test for 3 days before its performance. The limbs of each animal were wetted with a non-toxic food color and the mouse was let to run on a strip of paper (42 cm long, 4.5 cm wide) down a bright corridor towards a dark goal box. After four runs, the stride length of the forelimbs and the hindlimbs on each side was measured, excluding the beginning (7 cm) and the end (7 cm) of the run. The mean stride length for was determined.
Stride length test was performed on day 18-19 and day 27-28 after first 3-NP intoxication.

[2] = system: (PLP) α-synuclein transgenic mice; settings: MSA mice (3-NP +), N=10
Text: A suitable model for MSA is described by Stefanova et al. (Am. J. Pathol. March 2005, 166(3):869-76; Trends Neurosci. 2005, 28(9):501-6). This model acts by inducing oxidative stress in transgenic mice with oligodendroglial α-synuclein expression. […] The selective neuronal cell death pattern typical of MSA is achieved by combining mitochondrial inhibition by 3-nitropropionic acid (3-NP).
A total of 36 (PLP) α-synuclein transgenic mice over 6 months of age were used.
Chronic intoxication with 3-NP was done according to a previously used paradigm pathiology (i.e. 4×10 mg/kg, 4×20 mg/kg, 4×40 mg/kg, 4×50 mg/kg intraperitoneal injections every 12th hour for a period of two weeks) to model MSA pathology.
The mice were further divided into groups as follows: Control group (saline tested, n=10), low dose rasagiline group (0.6 mg/kg; n=10) and high dose rasagiline group ([…]; n=10). Rasagiline was delivered subcutaneously every 24 hours starting 24 hours one week before the intoxication with 3-NP and lasting for an additional week, i.e., for a total period of 4 weeks.

[3] = system: (PLP) α-synuclein transgenic mice; settings: fourth week (day 25)
Experimental: The pole test (Id.; and Matsuura et al., Pole test is a useful method for evaluating the mouse movement disorder caused by striatal dopamine depletion, Journal of Neuroscience Methods 1997; 73:45-8) was performed on day 17 and day 25 of the experiment. Each mouse was habituated to the test the day before. A wooden vertical pole with rough surface, 1 cm wide and 50 cm high was applied. The mouse was placed with the head up at the top of the pole and the time for turning downwards (Tturn) as well as the total time for climbing down the pole until the mouse reached the floor with the four paws (Ttotal) was taken in 5 trials. The best performance of all the five trials was kept for the statistical analysis (Fernagut et al., In vivo models of multiple system atrophy, Mov Disord. 2005; 20 Suppl 12:S57-S63). If a mouse was unable to perform the test, a default value of 120 s was taken into account.

MAO-A = MAO-A (Mus musculus, UniProt Q64133); settings: for MAO-A activity (mean dpm ± SD): MSA mice, brain homogenate, 14C-HT 100 μM, end of experiment
Chain of MAO-A (Q64133 whole entry): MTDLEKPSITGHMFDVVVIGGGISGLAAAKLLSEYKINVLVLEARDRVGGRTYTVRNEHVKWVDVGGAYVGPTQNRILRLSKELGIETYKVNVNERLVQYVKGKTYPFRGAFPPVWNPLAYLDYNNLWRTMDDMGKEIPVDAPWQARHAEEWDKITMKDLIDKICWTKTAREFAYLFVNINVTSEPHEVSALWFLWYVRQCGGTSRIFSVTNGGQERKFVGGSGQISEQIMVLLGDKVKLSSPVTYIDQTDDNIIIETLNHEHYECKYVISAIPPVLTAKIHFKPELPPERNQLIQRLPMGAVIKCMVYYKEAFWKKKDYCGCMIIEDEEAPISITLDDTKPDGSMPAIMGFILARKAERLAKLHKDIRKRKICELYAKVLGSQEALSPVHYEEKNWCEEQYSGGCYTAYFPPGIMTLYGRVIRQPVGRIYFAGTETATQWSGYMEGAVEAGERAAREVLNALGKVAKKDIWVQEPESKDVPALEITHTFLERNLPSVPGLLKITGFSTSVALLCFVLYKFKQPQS
Experimental: (§1) Efficacy of Rasagiline treatment was determined by biochemical measurement of the inhibition of MAO-A and MAO-B activity in the different treatment groups. Two mice per group were sacrificed under deep thiopental anesthesia by cervical […]. Brains were immediately removed and snap-frozen in liquid nitrogen and further stored at −80° C. Tissue homogenates were preincubated with clorgyline or deprenyl in order to inhibit MAO-A or MAO-B respectively. Incubation was carried on with 14C-labeled PEA (10 μM) for MAO-B determination and 14C-HT (100 μM) for MAO-A determination. Reaction was stopped by acidification and labeled metabolites were extracted into toluene/ethyl acetate and counted by beta-counter.

MAO-B = MAO-B (Mus musculus, UniProt Q8BW75); settings: for MAO-B activity (mean dpm ± SD): MSA mice, brain homogenate, 14C-PEA 10 μM, end of experiment
Chain of MAO-B (Q8BW75 whole entry): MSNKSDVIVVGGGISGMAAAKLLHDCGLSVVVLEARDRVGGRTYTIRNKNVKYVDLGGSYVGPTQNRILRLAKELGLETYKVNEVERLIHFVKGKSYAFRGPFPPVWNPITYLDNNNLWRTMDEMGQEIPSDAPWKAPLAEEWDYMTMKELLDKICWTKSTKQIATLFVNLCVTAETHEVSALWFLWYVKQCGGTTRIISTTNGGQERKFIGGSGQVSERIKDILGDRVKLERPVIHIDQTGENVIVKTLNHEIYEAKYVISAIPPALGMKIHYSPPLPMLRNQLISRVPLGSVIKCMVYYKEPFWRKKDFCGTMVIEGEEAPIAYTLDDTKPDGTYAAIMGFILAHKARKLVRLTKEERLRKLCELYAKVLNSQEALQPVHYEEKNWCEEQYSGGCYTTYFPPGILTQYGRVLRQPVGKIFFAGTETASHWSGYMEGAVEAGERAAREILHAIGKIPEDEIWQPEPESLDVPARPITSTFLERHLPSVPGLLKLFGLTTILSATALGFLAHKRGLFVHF
Experimental: as §1

[4] = system: (PLP) α-synuclein transgenic mice; remark: listed apart in the source
Experimental: Neuropathological examination of the brains was performed after transcardial perfusion of 4% paraformaldehyde (PFA) under deep thiopental anesthesia. Brains were quickly removed, postfixed in the same fixative for 1 hour at 4° C., and then kept in 25% sucrose solution until they sunk. The brains were slowly frozen in with 2-methylbutan and kept at −80° C. until processing. Serial sections throughout the whole brain were cut on a freezing microtome (Leica, Nussloch, Germany).
(§2) Sections underwent the following immunohistochemical stainings: tyrosinehydroxylase antibody (Sigma) used to visualize dopaminergic neurons in SNc, dopamine and cyclic adenosine 3′,5′-monophosphate-regulated phosphoprotein 32 (DARPP-32)(New York Hospital-Cornell Medical Centre) used to visualize medium sized spiny neurons in striatum and Purkinje cells in cerebellar cortex, Glial Fibrillary Acidic Protein (GFAP)(Roche Diagnostics GmBH) used to visualize astroglial reaction, CD11b (Serotec) used to visualize microglial reaction and Bcl-2, Bcl-X1 and Bax apoptic/anti-apoptotic markers. One full series was stained with cresyl violet.
(§3) The following antibodies were used in this study: monoclonal anti-DARPP-32 (1:2000), monoclonal anti-TH (Sigma, St. Louis, Mo., 1:500), monoclonal anti-GFAP (Roche, Vienna, Austria 1:100), monoclonal anti-CD11b (Serotec, Oxford, UK, 1:100), polyclonal anti-activated capase 3 (Transduction Laboratories, Lexington, Ky., 1:200), monoclonal anti-Bax (Santa Cruz Biotechnology, 1:100), monoclonal anti-Bc12 (Santa Cruz Biotechnology, 1:100), and monoclonal anti-BclX (Chemicon, Temecula, Calif., 1:100). Secondary antibodies were biotinylated horse anti-mouse IgG, goat anti-rat IgG, or goat anti-rabbit IgG (Vector, Burlingame, Calif.). Immunohistochemical reaction was developed with 3,3′-diaminobenzidine.
All morphometric analyses were done blinded to the treatment of the animal's observer. Stereology was applied using a computer-assisted image analysis system (Nikon E-800 microscope, Nikon digital camera DXM 1200; Stereo Investigator Software, MicroBrightField Europe e.K., Magdeburg, Germany). […] Purkinje cells in the cerebellum and glial reaction throughout the entire brain are analyzed to the Paxinos and Franklin mouse brain atlas (1997, Academic Press, San Diego). Purkinje cells were counted in a region outlined to include only the Purkinje cell layer (German et al., Degeneration of neurons and glia in the Niemann-Pick C mouse is unrelated to the low-density lipoprotein receptor. Neuroscience, 2001; 105:999-1005).

[5] = system: (PLP) α-synuclein transgenic mice; settings: daily rating, whole experimental period
Experimental: Behavioral tests were performed blindly to the treatment status according to the following procedures and described in Fernagut et al.: clinical scale, stride length, spontaneous locomotor activity.
The groups were evaluated daily during the whole experimental period with a general motor score according to a previously published rating scale.
A previously described rating scale (Fernagut et al., Subacute systemic 3-nitropropionic acid intoxication induces a distinct motor disorder in adult C57B1/6 mice: Behavioural and histopathological characterization, Neuroscience 2002; 114:1005-17) was used for evaluation of hindlimb clasping, general locomotor activity, hindlimb dystonia, truncal dystonia and postural challenge response (0, normal; 1 slightly disturbed, and 2 markedly disabled). […] A total daily score per animal for each session was determined as well as a total sum score per animal per group for the whole testing period.

[6] = system: early Parkinson's disease patients; settings: rasagiline-treated subjects; cited from earlier work
[7] = system: (PLP) α-synuclein transgenic mice; settings: mouse, in vivo
Text: as §2, §3

[8] = system: (PLP) α-synuclein transgenic mice; settings: any of the time points studied (day 16, day 26)
Experimental: To test the locomotor activity of the mice we applied the Flex Field Activity System, (San Diego Instruments, San Diego, Calif.) which allows monitoring and real-time counting of horizontal and vertical locomotor activity by 544 photo-beam channels. Mice were placed in the center of the open field (40.5×40.5×36.5 cm) and tested for a 15 min period always at the same time of the day (5.00 p.m.). The tests were performed in a dark room that was completely isolated from external noises and light during the test period. The sum of counts in the horizontal and vertical plane at day 16 and on day 26 of the experiment was further analyzed.

[9] = 2.5 mg/kg daily for 4 weeks, without reaching neuronal numbers of healthy controls

For `C#CCN[C@@H]1CCc2ccccc21` [Rasagiline, R(+)-N-propargyl-1-aminoindan], which stride length ([1]; day 18-19) is on record?
Its stride length is “reversed shortened stride length”.

What about the stride length ([1]; day 27-28) of the same compound?
The stride length was “reversed stride length impairment”.

And the “Mortality N (%)” value ([2]; Rasagiline 0.8 mg/kg b.w.)?
Its value is 2 (20) N (%).

What about the “Mortality N (%)” value ([2]; Rasagiline 2.5 mg/kg b.w.) of the same compound?
Its value is 1 (10) N (%).

And the “pole test T-total (prolonged movement time)” value [3]?
Its value is “significantly reduced”.

And the “pole test T-turn (prolonged movement time)” value [3]?
The value was “significantly reduced”.

What about the “MAO-A activity (mean dpm ± SD)” value (MAO-A; Rasagiline 0.8 mg/kg) of the same compound?
The value was 1463.10 ± 219 dpm.

What about the “MAO-A activity (mean dpm ± SD)” value (MAO-A; Rasagiline 2.5 mg/kg) of the same compound?
The value was 724.06 ± 65 dpm.

What about the “inhibition of MAO activity (MAO-A)” value (MAO-A; both concentrations) of the same compound?
Its value is “significant inhibition”.

And the “MAO-B activity (mean dpm ± SD)” value (MAO-B; Rasagiline 0.8 mg/kg)?
Its value is 370.01 ± 321 dpm.

And the “MAO-B activity (mean dpm ± SD)” value (MAO-B; Rasagiline 2.5 mg/kg)?
The value was 80.94 ± 14 dpm.

What about the “inhibition of MAO activity (MAO-B)” value (MAO-B; both concentrations) of the same compound?
Its value is “significant inhibition”.

What about the “protection of Purkinje cells” value [4, 9] of the same compound?
Its value is “partial protection”.

What about the “protection of neurons of the inferior olives” value [4, 9] of the same compound?
The value was “partial protection”.

And the “protection of pontine nuclei against 3-NP intoxication” value ([4]; mouse, in vivo)?
The value was “completely protected”.

And the “loss of striatal DARPP-32-immunoreactive medium spiny neurons” value ([4]; striatum, did not reach levels of non-intoxicated controls)?
Its value is “partially prevented”.

What about the “loss of TH-immunopositive neurons in SNc” value ([4]; substantia nigra pars compacta) of the same compound?
Its value is “completely protected”.

And the “general motor impairment (general motor score)” value [5]?
The value was “significant improvement”.

What about the “most commonly reported adverse events” value [6] of the same compound?
Its value is “pain, headache and dizziness”.

And the “side effects typical of other dopaminergic medications (hallucinations, somnolence, edema, nausea, vomiting, diarrhea)” value [6]?
Its value is “infrequently reported”.

And the “CD11b staining pattern (microglial activation), treated vs untreated mice” value [7]?
Its value is “No differences”.

What about the “GFAP staining pattern (astroglial activation), treated vs untreated mice” value [7] of the same compound?
Its value is “No differences”.

And the open field activity [8]?
Its open field activity is “observed neither upon open field activity”.

What about the rearing behavior [8] of the same compound?
The rearing behavior was “nor on rearing behavior”.
